Values of other authors, collected in US11872302B2, “Product for dyeing keratinous material, containing aminosilicone, a chromophoric compound and ester oil” (Henkel AG & Co. KGaA, priority 2019, dated 2024).

Conditions: 25° C.

| SMILES | solubility in water | solubility in water, in words |
| --- | --- | --- |
| CCN(Cc1cccc(S(=O)(=O)O)c1)c1ccc(C(=C2C=CC(=[N+](CC)Cc3cccc(S(=O)(=O)O)c3)C=C2)c2ccccc2S(=O)(=O)[O-])cc1 [Acid Blue 9] | more than 20 wt. % |  |
| O=S(=O)(O)c1ccc(N=Nc2c(O)ccc3ccccc23)cc1 [Acid Orange 7, 4-[(2-hydroxy-1-naphthyl)azo]benzene sulphonate] | more than 7 g/L |  |
| O=[N+]([O-])c1cc([N+](=O)[O-])c2ccc(S(=O)(=O)O)cc2c1O [Acid Yellow 9, 8-hydroxy-5,7-dinitro-2-naphthalenesulfonic acid] | above 40 g/L |  |
| O=C(O)C1=NN(c2ccc(S(=O)(=O)O)cc2)C(=O)C1N=Nc1ccc(S(=O)(=O)O)cc1 (stereo not shown) [Acid Yellow 23, 4,5-dihydro-5-oxo-1-(4-sulfophenyl)-4-((4-sulfophenyl)azo)-1H-pyrazole-3-carboxylic acid] |  | highly soluble in water |
